Measurements as given in ChEMBL document CHEMBL1145434, “Optimization of novel combi-molecules: identification of balanced and mixed bcr-abl/DNA targeting properties” (Bioorg Med Chem Lett, 2007).
Active and inactive are the calls of the source. The rule behind the calls is not given here.

Legend:
[1] = system: K562; assay: cells; conditions: Homo sapiens
Description: Cytotoxicity against K562 cells by MTT assay

[2] = biological target: Tyrosine-protein kinase ABL1 (Homo sapiens, UniProt P00519)
[3] = species: Homo sapiens; assay: Effect on DNA damage in p210 transfected M07 cells; assay type: functional, cell-based

Tyrosine-protein kinase ABL1, sequence (P00519 whole entry): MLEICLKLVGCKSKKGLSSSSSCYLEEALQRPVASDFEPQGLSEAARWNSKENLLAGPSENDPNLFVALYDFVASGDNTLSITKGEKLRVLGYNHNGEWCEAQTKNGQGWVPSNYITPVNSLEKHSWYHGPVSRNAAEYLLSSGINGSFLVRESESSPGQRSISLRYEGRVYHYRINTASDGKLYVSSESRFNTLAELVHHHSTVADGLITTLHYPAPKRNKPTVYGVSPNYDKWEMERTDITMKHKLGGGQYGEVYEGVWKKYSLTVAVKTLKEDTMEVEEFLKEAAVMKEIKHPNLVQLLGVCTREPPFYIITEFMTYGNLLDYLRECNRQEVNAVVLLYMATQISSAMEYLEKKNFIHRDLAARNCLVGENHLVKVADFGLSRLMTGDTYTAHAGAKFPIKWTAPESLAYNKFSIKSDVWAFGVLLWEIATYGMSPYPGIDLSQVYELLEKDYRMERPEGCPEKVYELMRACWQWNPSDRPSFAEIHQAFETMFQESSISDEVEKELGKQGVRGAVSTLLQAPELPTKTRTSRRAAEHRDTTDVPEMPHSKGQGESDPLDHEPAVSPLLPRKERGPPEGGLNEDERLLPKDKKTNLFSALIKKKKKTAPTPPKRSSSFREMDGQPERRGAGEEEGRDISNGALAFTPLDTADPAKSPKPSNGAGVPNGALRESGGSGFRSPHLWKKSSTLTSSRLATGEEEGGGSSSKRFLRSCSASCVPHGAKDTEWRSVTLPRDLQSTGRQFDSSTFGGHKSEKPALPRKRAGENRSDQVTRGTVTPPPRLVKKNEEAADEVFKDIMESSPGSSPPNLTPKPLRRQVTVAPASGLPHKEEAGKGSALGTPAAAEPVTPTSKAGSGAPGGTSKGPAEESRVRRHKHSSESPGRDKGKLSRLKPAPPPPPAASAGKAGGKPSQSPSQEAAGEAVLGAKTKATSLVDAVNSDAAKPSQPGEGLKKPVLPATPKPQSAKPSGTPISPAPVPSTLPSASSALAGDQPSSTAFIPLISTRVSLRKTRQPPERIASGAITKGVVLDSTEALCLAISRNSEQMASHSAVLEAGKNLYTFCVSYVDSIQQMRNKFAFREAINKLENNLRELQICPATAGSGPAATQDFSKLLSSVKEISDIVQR

| Structure (SMILES) | IC50 [1] [nM] | IC50 [2] [nM] | Activity [3] |
| --- | --- | --- | --- |
| Cc1ccc(NC(=O)c2ccc(N)c(C(F)(F)F)c2)cc1Nc1nccc(-c2cccnc2)n1 | 316 | – | – |
| Cc1ccc(NC(=O)c2ccc(CN(CCCl)CCCl)cc2)cc1Nc1nccc(-c2cccnc2)n1 | > 100000 | > 10000 | – |
| Cc1ccc(NC(=O)c2ccc(N)cc2)cc1Nc1nccc(-c2cccnc2)n1 | – | > 10000 | – |
| Cc1ccc(NC(=O)c2ccc(CN(C)CCCl)cc2)cc1Nc1nccc(-c2cccnc2)n1 | 79700 | – | – |
| Cc1ccc(NC(=O)c2ccc(N=NN(C)CO)c(C(F)(F)F)c2)cc1Nc1nccc(-c2cccnc2)n1 | 187 | – | – |
| CNN=Nc1ccc(C(=O)Nc2ccc(C)c(Nc3nccc(-c4cccnc4)n3)c2)cc1C(F)(F)F | 113 | – | Active |
| Cc1ccc(NC(=O)c2ccc(N(CCCl)CCCl)cc2)cc1Nc1nccc(-c2cccnc2)n1 | 2460 | 220 | – |
| CNN=Nc1ccc(C(=O)Nc2ccc(C)c(Nc3nccc(-c4cccnc4)n3)c2)cc1Cl | 9980 | – | – |
| Cc1ccc(NC(=O)c2ccc(N=NN(C)C)c(C(F)(F)F)c2)cc1Nc1nccc(-c2cccnc2)n1 | 52 | – | – |
